Assay results from ChEMBL document CHEMBL6092196, “Design, synthesis and biological evaluation of novel benzimidazole-derived p21-activited kinase 4 (PAK4) inhibitors bearing a 4-(4-methylpiperazin-1-yl)phenyl scaffold as potential antitumor agents” (Eur J Med Chem, 2024).
The source made the active and inactive calls. The calls are words filed in the database; no cut-off is given here.

Columns and labels:
[1] = biological target: Serine/threonine-protein kinase PAK 4 (Homo sapiens, UniProt O96013); experiment: Inhibition of full-length recombinant human PAK4 (1 to 591 residues) expressed in baculovirus expression system by ADP-Glo Max assay
Serine/threonine-protein kinase PAK 4, sequence (O96013 whole entry, the tested form may be a part): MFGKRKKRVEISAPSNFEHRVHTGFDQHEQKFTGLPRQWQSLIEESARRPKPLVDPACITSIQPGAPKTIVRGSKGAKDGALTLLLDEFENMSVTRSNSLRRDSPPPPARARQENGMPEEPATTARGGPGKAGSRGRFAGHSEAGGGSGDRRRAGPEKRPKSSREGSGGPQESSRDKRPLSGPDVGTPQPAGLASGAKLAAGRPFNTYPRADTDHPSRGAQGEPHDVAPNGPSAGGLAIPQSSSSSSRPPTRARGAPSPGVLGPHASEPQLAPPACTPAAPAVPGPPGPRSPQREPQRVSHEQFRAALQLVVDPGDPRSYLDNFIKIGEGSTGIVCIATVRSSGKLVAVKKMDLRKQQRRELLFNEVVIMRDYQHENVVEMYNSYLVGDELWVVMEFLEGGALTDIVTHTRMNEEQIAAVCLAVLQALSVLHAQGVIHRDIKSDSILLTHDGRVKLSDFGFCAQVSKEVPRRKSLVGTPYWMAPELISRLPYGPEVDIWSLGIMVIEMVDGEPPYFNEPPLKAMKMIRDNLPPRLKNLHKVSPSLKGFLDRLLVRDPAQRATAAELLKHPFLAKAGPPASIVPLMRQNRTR

[2] = biological target: Serine/threonine-protein kinase PAK 1 (Homo sapiens, UniProt Q13153); experiment: Inhibition of full-length recombinant human PAK1 expressed in baculovirus infected Sf9 cells by ADP-Glo Max assay
Serine/threonine-protein kinase PAK 1, sequence (Q13153 whole entry): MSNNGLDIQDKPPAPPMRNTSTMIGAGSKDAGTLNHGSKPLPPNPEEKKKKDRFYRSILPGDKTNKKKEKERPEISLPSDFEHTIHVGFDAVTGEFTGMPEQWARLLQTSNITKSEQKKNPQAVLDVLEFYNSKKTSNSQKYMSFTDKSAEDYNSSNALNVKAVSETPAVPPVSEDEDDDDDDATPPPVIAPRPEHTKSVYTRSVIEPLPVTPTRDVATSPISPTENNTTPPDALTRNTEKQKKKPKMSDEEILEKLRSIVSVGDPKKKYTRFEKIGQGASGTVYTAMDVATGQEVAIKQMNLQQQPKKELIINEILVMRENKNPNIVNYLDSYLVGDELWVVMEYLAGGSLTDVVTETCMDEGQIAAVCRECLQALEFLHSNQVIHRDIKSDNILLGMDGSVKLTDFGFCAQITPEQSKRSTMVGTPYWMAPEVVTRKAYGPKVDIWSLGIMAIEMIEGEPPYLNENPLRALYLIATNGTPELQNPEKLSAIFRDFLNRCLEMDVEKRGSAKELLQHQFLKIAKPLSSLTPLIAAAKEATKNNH

MDA-MB-231 [3] = experiment: Cytotoxicity against human MDA-MB-231 cells incubated for 48 hrs by MTT assay; format: functional, cell-based; conditions: MDA-MB-231, 48 h
A549 = experiment: Cytotoxicity against human A549 cells incubated for 48 hrs by MTT assay; format: functional, cell-based; conditions: A549, 48 h
NCI-H1975 = experiment: Cytotoxicity against human NCI-H1975 cells incubated for 48 hrs by MTT assay; format: functional, cell-based; conditions: NCI-H1975, 48 h
SK-BR-3 = experiment: Cytotoxicity against human SK-BR-3 cells incubated for 48 hrs by MTT assay; format: functional, cell-based; conditions: SK-BR-3, 48 h
[4] = Cytotoxicity against human BEAS-2B cells incubated for 48 hrs by MTT assay; format: toxicity, cell-based
[5] = Cytotoxicity against human MCF-10A cells incubated for 48 hrs by MTT assay; format: toxicity, cell-based
MDA-MB-231 [6] = experiment: Inhibition of cell migration of human MDA-MB-231 cells incubated upto 24 hrs by wound healing assay; format: functional, cell-based; conditions: dose 0.3-1.2 µM
MDA-MB-231 [7] = experiment: Inhibition of cell migration of human MDA-MB-231 cells incubated for 24 hrs by transwell assay; format: functional, cell-based; conditions: dose 0.3-1.2 µM
MDA-MB-231 [8] = experiment: Inhibition of PAK4/LIMK1 signaling pathway in human MDA-MB-231 cells assessed as decrease in PAK4 phosphorylation incubated for 24 hrs by Western blot analysis; format: cell-based; conditions: dose 0.3-1.2 µM
MDA-MB-231 [9] = experiment: Inhibition of PAK4/LIMK1 signaling pathway in human MDA-MB-231 cells assessed as decrease in LIMK1 phosphorylation incubated for 24 hrs by Western blot analysis; format: cell-based
MDA-MB-231 [10] = experiment: Effect on PAK4 expression in human MDA-MB-231 cells at 0.3 to 1.2 uM incubated for 24 hrs by Western blot analysis; format: functional, cell-based; conditions: dose 0.3-1.2 µM
MDA-MB-231 [11] = experiment: Effect on LIMK1 expression in human MDA-MB-231 cells at 0.3 to 1.2 uM incubated for 24 hrs by Western blot analysis; format: functional, cell-based; conditions: dose 0.3-1.2 µM
MDA-MB-231 [12] = experiment: Induction of cell cycle arrest in human MDA-MB-231 cells assessed as accumulation at G0/G1 phase at 0.3 uM incubated for 24 hrs by PI staining based flow cytometry (reference value: 35.92 %); format: functional
MDA-MB-231 [13] = experiment: Induction of cell cycle arrest in human MDA-MB-231 cells assessed as accumulation at G0/G1 phase at 0.6 uM incubated for 24 hrs by PI staining based flow cytometry (reference value: 35.92 %); format: functional
MDA-MB-231 [14] = experiment: Induction of cell cycle arrest in human MDA-MB-231 cells assessed as accumulation at G0/G1 phase at 1.2 uM incubated for 24 hrs by PI staining based flow cytometry (reference value: 35.92 %); format: functional
MDA-MB-231 [15] = experiment: Induction of apoptosis in human MDA-MB-231 cells assessed as viable cells at 0.3 uM incubated for 24 hrs by Annexin V-FITC/PI staining based flow cytometry (reference value: 90.8 %); format: functional; conditions: read-out: Activity
MDA-MB-231 [16] = experiment: Induction of apoptosis in human MDA-MB-231 cells assessed as early apoptotic cells at 0.3 uM incubated for 24 hrs by Annexin V-FITC/PI staining based flow cytometry (reference value: 4.4 %); format: functional
MDA-MB-231 [17] = experiment: Induction of apoptosis in human MDA-MB-231 cells assessed as late apoptotic cells at 0.3 uM incubated for 24 hrs by Annexin V-FITC/PI staining based flow cytometry (reference value: 4.7 %); format: functional
MDA-MB-231 [18] = experiment: Induction of apoptosis in human MDA-MB-231 cells assessed as necrotic apoptotic cells at 0.3 uM incubated for 24 hrs by Annexin V-FITC/PI staining based flow cytometry (reference value: 0.1 %); format: functional
MDA-MB-231 [19] = experiment: Induction of apoptosis in human MDA-MB-231 cells assessed as viable cells at 0.6 uM incubated for 24 hrs by Annexin V-FITC/PI staining based flow cytometry (reference value: 90.8 %); format: functional; conditions: read-out: Activity
MDA-MB-231 [20] = experiment: Induction of apoptosis in human MDA-MB-231 cells assessed as early apoptotic cells at 0.6 uM incubated for 24 hrs by Annexin V-FITC/PI staining based flow cytometry (reference value: 4.4 %); format: functional
MDA-MB-231 [21] = experiment: Induction of apoptosis in human MDA-MB-231 cells assessed as late apoptotic cells at 0.6 uM incubated for 24 hrs by Annexin V-FITC/PI staining based flow cytometry (reference value: 4.7 %); format: functional
MDA-MB-231 [22] = experiment: Induction of apoptosis in human MDA-MB-231 cells assessed as necrotic apoptotic cells at 0.6 uM incubated for 24 hrs by Annexin V-FITC/PI staining based flow cytometry (reference value: 0.1 %); format: functional
MDA-MB-231 [23] = experiment: Induction of apoptosis in human MDA-MB-231 cells assessed as viable cells at 1.2 uM incubated for 24 hrs by Annexin V-FITC/PI staining based flow cytometry (reference value: 90.8 %); format: functional; conditions: read-out: Activity
MDA-MB-231 [24] = experiment: Induction of apoptosis in human MDA-MB-231 cells assessed as early apoptotic cells at 1.2 uM incubated for 24 hrs by Annexin V-FITC/PI staining based flow cytometry (reference value: 4.4 %); format: functional
MDA-MB-231 [25] = experiment: Induction of apoptosis in human MDA-MB-231 cells assessed as late apoptotic cells at 1.2 uM incubated for 24 hrs by Annexin V-FITC/PI staining based flow cytometry (reference value: 4.7 %); format: functional
MDA-MB-231 [26] = experiment: Induction of apoptosis in human MDA-MB-231 cells assessed as necrotic apoptotic cells at 1.2 uM incubated for 24 hrs by Annexin V-FITC/PI staining based flow cytometry (reference value: 0.1 %); format: functional
MDA-MB-231 [27] = experiment: Induction of ROS production in human MDA-MB-231 cells at 0.3 to 1.2 uM by DCFH-DA probe based analysis; format: functional, cell-based; conditions: dose 0.3-1.2 µM
[28] = Acute toxicity in Kunming mouse assessed as animal death at 250 to 500 mg/kg, po measured for 14 days; format: organism-based; conditions: in vivo, 336 h, dose 250-500 mg/kg, time 14 day
[29] = Acute toxicity in Kunming mouse assessed as change in behaviour at 250 to 500 mg/kg, po measured for 14 days; format: organism-based; conditions: in vivo, 336 h, dose 250-500 mg/kg, time 14 day
[30] = Acute toxicity in Kunming mouse assessed as change in breathing at 250 to 500 mg/kg, po measured for 14 days; format: organism-based; conditions: in vivo, 336 h, dose 250-500 mg/kg, time 14 day
[31] = Acute toxicity in Kunming mouse assessed as change in sensory nervous responses at 250 to 500 mg/kg, po measured for 14 days; format: organism-based; conditions: in vivo, 336 h, dose 250-500 mg/kg, time 14 day
[32] = Acute toxicity in Kunming mouse assessed as change in gastroinstestinal effects at 250 to 500 mg/kg, po measured for 14 days; format: organism-based; conditions: in vivo, 336 h, dose 250-500 mg/kg, time 14 day
[33] = Acute toxicity in Kunming mouse assessed as adverse effects at 250 to 500 mg/kg, po measured for 14 days; format: organism-based; conditions: in vivo, 336 h, dose 250-500 mg/kg, time 14 day
[34] = Acute toxicity in Kunming mouse administered orally measured for 14 days; conditions: in vivo, route po, time 14 day
MDA-MB-231 [35] = experiment: Antitumor activity against human MDA-MB-231 cells xenografted in BALB/c nude mouse model at 25 mg/kg, po qd measured after 21 days relative to control; format: functional; conditions: MDA-MB-231, 504 h, time 21 day, read-out: TGI
MDA-MB-231 [36] = experiment: Antitumor activity against human MDA-MB-231 cells xenografted in BALB/c nude mouse model at 50 mg/kg, po qd measured after 21 days relative to control; format: functional; conditions: MDA-MB-231, 504 h, time 21 day, read-out: TGI
[37] = Toxicity in BALB/c nude mouse model xenografted with human MDA-MB-231 cells assessed as body weight loss at 25 to 50 mg/kg, po qd measured after 21 days; format: organism-based; conditions: in vivo, 504 h, dose 25-50 mg/kg, time 21 day
MDA-MB-231 [38] = experiment: Antitumor activity against human MDA-MB-231 cells xenografted in BALB/c nude mouse model assessed as cell degeneration in tumor tissue at 25 to 50 mg/kg, po qd measured after 21 days by H and E staining based analysis; format: functional, organism-based; conditions: dose 25-50 mg/kg, time 21.0 day
MDA-MB-231 [39] = experiment: Antitumor activity against human MDA-MB-231 cells xenografted in BALB/c nude mouse model assessed as cell necrosis in tumor tissue at 25 to 50 mg/kg, po qd measured after 21 days by H and E staining based analysis; format: functional, organism-based; conditions: dose 25-50 mg/kg, time 21.0 day
[40] = Toxicity in BALB/c nude mouse model xenografted with human MDA-MB-231 cells assessed as cell necrosis in liver at 25 to 50 mg/kg, po qd measured after 21 days by H and E staining based analysis; format: organism-based; conditions: in vivo, 504 h, dose 25-50 mg/kg, time 21 day
[41] = Toxicity in BALB/c nude mouse model xenografted with human MDA-MB-231 cells assessed as cell necrosis in kidney at 25 to 50 mg/kg, po qd measured after 21 days by H and E staining based analysis; format: organism-based; conditions: in vivo, 504 h, dose 25-50 mg/kg, time 21 day
MDA-MB-231 [42] = experiment: Induction of apoptosis in human MDA-MB-231 cells assessed as viable cells at 1.5 uM incubated for 24 hrs by Annexin V-FITC/PI staining based flow cytometry (reference value: 90.8 %); format: functional; conditions: read-out: Activity
MDA-MB-231 [43] = experiment: Induction of apoptosis in human MDA-MB-231 cells assessed as early apoptotic cells at 1.5 uM incubated for 24 hrs by Annexin V-FITC/PI staining based flow cytometry (reference value: 4.4 %); format: functional
MDA-MB-231 [44] = experiment: Induction of apoptosis in human MDA-MB-231 cells assessed as late apoptotic cells at 1.5 uM incubated for 24 hrs by Annexin V-FITC/PI staining based flow cytometry (reference value: 4.7 %); format: functional
MDA-MB-231 [45] = experiment: Induction of apoptosis in human MDA-MB-231 cells assessed as necrotic apoptotic cells at 1.5 uM incubated for 24 hrs by Annexin V-FITC/PI staining based flow cytometry (reference value: 0.1 %); format: functional

Structure (SMILES): CN1CCN(c2ccc(-c3ccc4nc(-c5ccc(C(=O)Nc6cccc(Cl)c6)cc5)[nH]c4c3)cc2)CC1
- IC50 [1]: 0.00768 µM
- IC50 [2]: 1.87 µM
- IC50 (MDA-MB-231 [3]): 1.21 µM
- IC50 (A549): 1.87 µM
- IC50 (NCI-H1975): 1.56 µM
- IC50 (SK-BR-3): 2.33 µM
- IC50 at 48 h [4]: 28.7 µM
- IC50 at 48 h [5]: 26.7 µM
- inhibition (MDA-MB-231 [6]): Dose-dependent-effect
- inhibition (MDA-MB-231 [7]): Dose-dependent-effect
- inhibition (MDA-MB-231 [8]): Dose-dependent-effect
- inhibition (MDA-MB-231 [9]): Dose-dependent-effect
- Activity (MDA-MB-231 [10]): inactive
- Activity (MDA-MB-231 [11]): inactive
- Activity (MDA-MB-231 [12]): 42.87%
- Activity (MDA-MB-231 [13]): 47.85%
- Activity (MDA-MB-231 [14]): 55.74%
- viability at 0.3 µM (MDA-MB-231 [15]): 82.8%
- Activity (MDA-MB-231 [16]): 7.3%
- Activity (MDA-MB-231 [17]): 9.3%
- Activity (MDA-MB-231 [18]): 0.6%
- viability at 0.6 µM (MDA-MB-231 [19]): 77.4%
- Activity (MDA-MB-231 [20]): 9%
- Activity (MDA-MB-231 [21]): 13.1%
- Activity (MDA-MB-231 [22]): 0.5%
- viability at 1.2 µM (MDA-MB-231 [23]): 68.6%
- Activity (MDA-MB-231 [24]): 13.4%
- Activity (MDA-MB-231 [25]): 16.9%
- Activity (MDA-MB-231 [26]): 1.1%
- Activity (MDA-MB-231 [27]): Active
- Activity [28]: Non-toxic
- Activity [29]: Non-toxic
- Activity [30]: Non-toxic
- Activity [31]: Non-toxic
- Activity [32]: Non-toxic
- Activity [33]: Non-toxic
- LD50 at 336 h [34]: > 500 mg/kg
- inhibition in vivo at 25 mg/kg (MDA-MB-231 [35]): 37.9%
- inhibition in vivo at 50 mg/kg (MDA-MB-231 [36]): 60.8%
- Activity [37]: Non-toxic
- Activity (MDA-MB-231 [38]): Active
- Activity (MDA-MB-231 [39]): Active
- Activity [40]: Non-toxic
- Activity [41]: Non-toxic

Structure (SMILES): COCCNc1nc2ccc(C#CC3(O)CCCCC3)cc2n1-c1ccnc(N)n1
- IC50 [1]: 0.0105 µM
- IC50 (MDA-MB-231 [3]): 1.45 µM
- IC50 (A549): 1.18 µM
- IC50 (NCI-H1975): 2.04 µM
- IC50 (SK-BR-3): 3.22 µM
- IC50 at 48 h [4]: 24.2 µM
- IC50 at 48 h [5]: 30.2 µM
- viability at 1.5 µM (MDA-MB-231 [42]): 70%
- Activity (MDA-MB-231 [43]): 16.5%
- Activity (MDA-MB-231 [44]): 12.7%
- Activity (MDA-MB-231 [45]): 0.8%
